Laboratory results taken from ChEMBL document CHEMBL1140459, “Synthesis of poison-frog alkaloids 233A, 235U, and 251AA and their inhibitory effects on neuronal nicotinic acetylcholine receptors” (Bioorg Med Chem Lett, 2007).
pIC50: −log10 of the molar value.

Columns and labels:
[1] = target: Neuronal acetylcholine receptor subunit alpha-7 (Homo sapiens, UniProt P36544); assay: Inhibition of alpha-7 nAchR expressed in Xenopus laevis oocytes assessed as acetylcholine-induced current by voltage-clamp method; assay type: functional, cell-based, Oocyte
Sequence of Neuronal acetylcholine receptor subunit alpha-7 (P36544 whole entry): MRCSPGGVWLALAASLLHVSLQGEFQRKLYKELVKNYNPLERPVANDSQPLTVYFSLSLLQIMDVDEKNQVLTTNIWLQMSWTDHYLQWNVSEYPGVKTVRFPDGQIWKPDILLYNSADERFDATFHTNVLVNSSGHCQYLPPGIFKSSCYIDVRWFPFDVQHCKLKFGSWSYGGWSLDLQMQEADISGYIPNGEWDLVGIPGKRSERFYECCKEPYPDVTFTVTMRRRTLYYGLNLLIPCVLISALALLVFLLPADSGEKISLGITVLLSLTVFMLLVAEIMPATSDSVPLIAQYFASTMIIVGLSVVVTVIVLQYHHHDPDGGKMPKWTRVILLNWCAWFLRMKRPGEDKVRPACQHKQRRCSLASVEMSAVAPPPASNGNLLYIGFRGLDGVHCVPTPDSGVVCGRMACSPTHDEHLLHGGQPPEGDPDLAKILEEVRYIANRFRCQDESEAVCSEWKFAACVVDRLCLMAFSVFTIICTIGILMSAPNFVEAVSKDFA

[2] = target: Neuronal acetylcholine receptor; alpha4/beta2 (Homo sapiens, UniProt P17787+P43681); assay: Inhibition of alpha4beta2 nAchR expressed in Xenopus laevis oocytes assessed as acetylcholine-induced current by voltage-clamp method; assay type: cell-based, Oocyte
Sequence of Neuronal acetylcholine receptor; alpha4/beta2 (P17787 whole entry): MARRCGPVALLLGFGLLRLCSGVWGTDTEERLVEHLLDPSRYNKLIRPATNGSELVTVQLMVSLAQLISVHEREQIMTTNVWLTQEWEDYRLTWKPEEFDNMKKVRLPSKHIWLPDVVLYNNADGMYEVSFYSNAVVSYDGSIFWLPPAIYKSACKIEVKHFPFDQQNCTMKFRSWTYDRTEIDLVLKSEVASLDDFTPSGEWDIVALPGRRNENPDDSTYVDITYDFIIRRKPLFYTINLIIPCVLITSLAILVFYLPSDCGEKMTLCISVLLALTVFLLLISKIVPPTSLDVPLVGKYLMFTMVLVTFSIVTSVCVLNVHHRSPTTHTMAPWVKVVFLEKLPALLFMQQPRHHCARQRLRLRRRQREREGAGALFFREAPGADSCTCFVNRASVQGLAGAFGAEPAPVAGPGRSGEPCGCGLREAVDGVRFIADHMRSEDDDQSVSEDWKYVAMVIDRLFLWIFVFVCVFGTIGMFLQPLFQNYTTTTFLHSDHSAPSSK
Sequence of Neuronal acetylcholine receptor; alpha4/beta2 (P43681 whole entry): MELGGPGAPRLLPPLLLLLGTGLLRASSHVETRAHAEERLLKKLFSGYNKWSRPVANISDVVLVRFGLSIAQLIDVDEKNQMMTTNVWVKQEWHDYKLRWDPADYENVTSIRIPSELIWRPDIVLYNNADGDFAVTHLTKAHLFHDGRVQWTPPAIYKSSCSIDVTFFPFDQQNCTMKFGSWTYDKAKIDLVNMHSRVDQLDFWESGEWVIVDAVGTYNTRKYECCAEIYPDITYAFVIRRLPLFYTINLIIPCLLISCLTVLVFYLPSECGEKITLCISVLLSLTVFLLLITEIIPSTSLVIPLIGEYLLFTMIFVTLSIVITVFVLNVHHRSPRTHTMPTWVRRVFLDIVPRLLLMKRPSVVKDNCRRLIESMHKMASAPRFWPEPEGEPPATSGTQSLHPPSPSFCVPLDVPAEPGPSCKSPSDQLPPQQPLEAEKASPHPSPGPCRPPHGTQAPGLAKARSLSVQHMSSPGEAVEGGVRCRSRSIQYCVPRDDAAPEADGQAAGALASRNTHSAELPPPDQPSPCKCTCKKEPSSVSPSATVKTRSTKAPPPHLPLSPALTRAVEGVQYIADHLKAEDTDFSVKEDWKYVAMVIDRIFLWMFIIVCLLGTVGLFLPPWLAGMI

SMILES | pIC50 [1] | pIC50 [2]
C#CCCC[C@@H]1CC[C@@H](CC)[C@@H]2CCCCN12 | 5.13 | 5.29
C=CCCC[C@@H]1CC[C@@H](CC)[C@@H]2CCCCN12 | 5.28 | 5.46
CCCCCC[C@@H]1CC[C@@H](CC)[C@@H]2CCCCN12 | 5.39 | 5.60
